In patent US20140056866A1, “USE OF BIOLOGICAL OR CHEMICAL CONTROL AGENTS FOR CONTROLLING INSECTS AND NEMATODES IN RESISTANT CROPS” (priority 2010, published 2014):

What was measured:
S. frugiperda = assay: Leaf sample bioassay with fall armyworm larvae (Example 3); assay type: in vivo; conditions: for Insect Mortality / Leaf Feeding Rating: 48 hours; for Insect Mortality: Jul. 14, 2011; for Leaf Feeding Rating: scale 0 = undamaged to 3 = severe feeding; for additional increase in mortality in the presence of Axmi205: versus clothianidin alone; for increase in mortality above the negative control: Axmi205-negative plants
Procedure: (§1) Zea Mays (Corn) seed from events traited with Axmi205 were selected. […] The population of the seed used is not entirely transgenic; plants without the trait in their DNA were used for control comparisons.
(§2) Seed was treated with seed applied pesticides using a hege bowl treater. Applications were made of: Clothianidin; available as Poncho though through Bayer CropScience. Rates were applied as mg ai/seed. The evaluation had non-target variables controlled.
(§3) During testing, samples of each plant were submitted for PCR to determine if an individual plant carried the Axmi205 gene (positive or negative). Plants for which no PCR results could be obtained were not included in the results.
(§4) Seed were planted into germination mix at a rate of one seed per root-trainer. Testing was conducted as a randomized complete block with 30 replications. Plants were maintained in a greenhouse and periodically assessed for emergence. After several weeks of growth, leaf samples were taken from plants and used to conduct insect bioassays on species of Lepidoptera. A leaf sample was placed into a Petri-dish and infested with 10 larvae of fall armyworm; Spodoptera frugiperda. After 48 hours dishes were evaluated for insect mortality and leaf feeding damage. When assessing leaf feeding, damage was recorded as a rating between 0-3, where zero was undamaged and three was severely damaged. After approximately three weeks from planting, plants were infested with Diabrotica virgifera (western corn rootworm). Western corn rootworm eggs were infested into the root system of plants. At approximately 15 days post infestation plants were extracted and insect feeding damage was evaluated following Iowa State University's Node-Injury Scale at www.ent.iastate.edu/pest/rootworm/nodeinjury/nodeinjury.html.

D. virgifera = assay: Western corn rootworm root feeding damage, Node-Injury Scale (Example 3); assay type: in vivo, Diabrotica virgifera; conditions: for Root Damage Rating: 0 = undamaged, 3 = severely damaged
Procedure: as §1, §2, §3, §4

[1] = tested on: Glycine max (soybean) roots; assay: WinRHIZO root image analysis of soybean (Example 2); assay type: in vivo
Procedure: (§5) Glycine max (soybean) seed from an event traited with Axmi031 was selected. […] Plants that screened negative for the presence of the transgene were used for control comparisons.
(§6) Seed was treated with seed applied pesticides using a hege bowl treater. Metalaxyl (MTL), available as Allegiance through Bayer CropScience, was applied at rates of 2 and 4 g ai/100 kg seed. Trilex 2000 was also included as a commercial standard package.
(§7) During testing, samples of each plant were submitted for PCR to determine if an individual plant carried the Axmi031 gene (Positive or Negative). Plants for which no PCR results could be obtained were not included in results. There were a disproportionate number of positive plants. As a result, the number of negative plants available in some comparisons was very small.
(§8) Testing was conducted as a randomized complete block with 30 replications. Seed were planted into sand at a rate of one seed per pot. Plants were stored at 10° C. for eight days and then moved to 25° C. for the remainder of the test. Plants were periodically assessed for emergence. After several weeks of growth plants were evaluated for height. At approximately 40 days after planting, 5 random plants for each treatment comparison were selected for extraction. If fewer than 5 plants were available, evaluations were still conducted as long as a minimum of 3 plants could be assessed. Exacted plants were measured by hand to determine root length and mass and evaluated using WinRHIZO image analysis system (available through Regent instruments at www.regent.qc.ca/products/rhizo/WinRHIZO.html.

Glycine max (soybean) = assay: Soybean shoot height and plant mass after metalaxyl seed treatment (Example 2); assay type: in vivo
Procedure: as §5, §6, §7, §8

SCN (inbred colony OP50) = assay: SCN cyst counts on soybean pot plants, seed treated with fluopyram (Example 1); assay type: in vivo, soybean cyst nematodes; conditions: base (color/coating) treatment only, two months after planting
Procedure: Two tests were planted with Jack (an SCN resistant soybean variety with PI 88788 resistance) and two genetically modified Jack varieties (AXN2 and AXMI031) known to produce a nematicidal protein. The seed were treated with a color/coating base or the same base plus one of two different rates of fluopyram (experiment 1 used 0.075 mg fluopyram/seed and experiment 2 used 0.15 mg fluopyram/seed). The SCN used to inoculate both tests were collected from an inbred colony (OP50) with the ability to overcome PI 88788 resistance.
Tests were conducted as non-randomized blocks with a minimum of 10 replicates. Seed were planted in individual 4″ clay pots with coarse sand and inoculated with approximately 20,000 OP50 juveniles in ten equal inoculations beginning at planting and again approximately every third day. Plants were maintained in a germination chamber. Blocks were rotated approximately every third day to minimize potential influence of environmental variance. Two months after planting, plants were harvested and cysts were collected and counted to evaluate the efficacy of the nematicide and traits, both individually and in combination with each other.

SCN (HG2.5.7) = assay: SCN cyst counts on Axmi031 soybean treated with Bacillus firmus (Example 4, FIG. 2); assay type: in vivo, soybean cyst nematodes; conditions: Axmi031 expression
From the text: Soybeans (6-10 seeds each) in this study included: Control SB171 (transfected control with non gene of interest); SB 171 treated with Bacillus firmus CNCM I-1582 spore control plant; Axmi031 transgenic plant (which also contains non gene of interest); Axmi031 transgenic plant (which also contains non gene of interest) treated with Bacillus firmus CNCM I-1582 spore.
Soybeans (6-10 seeds/plant and treatment) were planted into 4″ clay pots in sand infested with approximately 37,000 SCN eggs (HG2.5.7) at time of planting. Soybean plants were reinfested with 20,000 SCN eggs (HG2.5.7) at approximately 4 weeks post planting. Plants were grown 57 days post reinfestation date. Cysts were harvested from each pot and counted. PCR and Western analysis were done on each AXMI031 plant. Negative segregants were removed from analysis. Data shown in FIG. 2 represents six plants for SB171 each treatment and all PCR/Western positive Axmi031 plants.

[2] = metalaxyl 2 g ai added to Axmi031
[3] = metalaxyl 4 g ai added to Axmi031

With CN/C(=N\[N+](=O)[O-])NCc1cnc(Cl)s1 [clothianidin] the “Insect Mortality” value (S. frugiperda; CTD 0.125 mg ai/seed) was 8%, the “Leaf Feeding Rating” value (S. frugiperda; CTD 0.125 mg ai/seed) was 3.00 and the “Insect Mortality” value (S. frugiperda; CTD 0.25 mg ai/seed) was 12%. The “Leaf Feeding Rating” value (S. frugiperda; CTD 0.25 mg ai/seed) was 2.77, the “Insect Mortality” value (S. frugiperda; CTD 0.5 mg ai/seed) was 11% and the “Leaf Feeding Rating” value (S. frugiperda; CTD 0.5 mg ai/seed) was 3.00. For the same molecule, the “additional increase in mortality in the presence of Axmi205” value (S. frugiperda; clothianidin 0.125 mg ai/seed) was 88%, the “additional increase in mortality in the presence of Axmi205” value (S. frugiperda; clothianidin 0.5 mg ai/seed) was 54% and the “increase in mortality above the negative control” value (S. frugiperda; highest rate of clothianidin (0.5 mg ai/seed)) was 57%. For the same molecule, the “increase in mortality above the negative control” value (S. frugiperda; lowest rate of clothianidin (0.125 mg ai/seed)) was 14%, the “increase in mortality above the negative control” value (S. frugiperda; middle rate of clothianidin (0.25 mg ai/seed)) was 71% and the “Root Damage Rating” value (D. virgifera; CTD 0.125 mg ai/seed) was 0.56. The “Root Damage Rating” value (D. virgifera; CTD 0.25 mg ai/seed) was 0.32, the “Root Damage Rating” value (D. virgifera; CTD 0.5 mg ai/seed) was 0.04 and the “reduction of root damage over the negative control” value (D. virgifera; highest rate of clothianidin tested (0.5 mg ai/seed)) was 96%. The “reduction of root damage over the negative control” value (D. virgifera; lowest rate of clothianidin tested (0.125 mg ai/seed)) was 67%.

In the case of COCC(=O)N(c1c(C)cccc1C)C(C)C(=O)OC (stereo not drawn) [metalaxyl], the “increase in root lengths” value [1, 2] is reported as 60%, the “increase in root surface area” value [1, 2] is reported as 42% and the “increase in root volume” value [1, 2] is reported as 27%. For the same molecule, the “increase in root lengths” value [1, 3] was 68%, the “increase in root surface area” value [1, 3] was 37% and the “increase in root volume” value [1, 3] was 11%. The “root tips, forks, and crossings” value ([1]; metalaxyl added to Axmi031, trend with rate) was “increased as metalaxyl rate increased”, the “plant shoot height, trend with rate” value (Glycine max (soybean); metalaxyl 2 and 4 g ai/100 kg seed) was “increased with increasing rates” and the “additional increase in plant total mass” value (Glycine max (soybean); metalaxyl 2 g ai on Axmi031 plants) was 5%. The additional shoot height (Glycine max (soybean); metalaxyl 2 g ai/100 kg seed on Axmi031 plants) was 5%, the “increase in above ground plant mass compared to Axmi031 alone” value (Glycine max (soybean); metalaxyl 4 g ai on Axmi031 plants) was 11% and the additional shoot height (Glycine max (soybean); metalaxyl 4 g ai/100 kg seed on Axmi031 plants) was 8%.

B1: Axn2: nematicidal protein trait expressed in genetically modified Jack soybean (gene axn2, Table 1) (protein, listed as Bacillus thuringiensis)
chain: MRIRRNQSTLSHNERLAFTNAVLELKRRPSRLPMSLGSTSRYDDYVYWHLQSMENQTSTTPGWAHRGPAFLPWHRYYLNQFEEDLQRIDHTVTLPYWDWTVDNSTDSSVPGSPWTDDFMGGDGDPTQEYTVTTGPFTGDNWKLTLFDHHENEPHNARLRRQLGTTLNASGNTISINLPTDSEVQNCLLETPYYVSPWRAGQDVNQPALNPTKPSFCNRLEGWYGAGSIHNKVHVWVAGATEGSMIWMSSPNDPVFFLHHANIDRLWVQWQANNPNEGYHPTGNGNEVGPTGHNLNDSMNPWGRKVTPNNVLNHYSLGYTYDTDSTPLSEIFMHTFNLKIRKEKQIKDGHFGLSQEDLDKL
In the case of B1, the “percent reduction in average number of cysts compared to Jack” value (shortened to “percent reduction in average number”) (SCN (inbred colony OP50); first experiment) is reported as 20% and the “percent reduction in average number” value (SCN (inbred colony OP50); second experiment) is reported as 43%.

B2: Axmi031: nematicidal protein trait expressed in genetically modified soybean (gene axmi031, Table 1) (protein)
chain: MDCNLQSQQNIPYNVLAIPVSNVNSLTDTVGDLKKAWEEFQKTGSFSLTALQQGFSASQGGTFNYLTLLQSGISLAGSFVPGGTFVAPIINMVIGWLWPHKNKNADTENLINLIDSEIQKQLNKALLDADRNEWSSYLESIFDSSNNLNGAIVDAQWSGTVNTTNRTLRNPTESDYTNVVTNFIAADGDIANNENHIMNGNFDVAAAPYFVIGATARFAAMQSYIKFCNAWIDKVGLSDAQLTTQKANLDRTKQNMRNAILNYTQQVMKVFKDSKNMPTIGTNKFSVDTYNVYIKGMTLNVLDIVAIWPSLYPDDYTSQTALEQTRVTFSNMVGQEEGTDGSLRIYNTFDSFSYQHSPIPNNNVNLISYYNDELQNLELGVYTPPKKGSGYSYPYGFVLNYANSKYKYGDSNDPESLGGLSTLSAPIQQVNAATQNSKYLDGEILNGIGASLPGYCTTGCSPTEPPFSCTSTANGYKASCNPSDTNQKINALYPFTQANVKGNTGKLGVLASLVSYDLNPKNVFGELDSDTNNVILKGIPAEKGYFPNNARPTVVKEWINGASAVPLDSGNTLFMTATNLTATQYRIRIRYANPNSNTQIGVRITQNGSLISSSNLTLYSTTDMNNTLPLNVYVIGENGNYTLQDLYNTTNVLSTGDITLQITGGDQKIFIDRIEFVPTMPVPGNTNNNNGNNNGNNNPPHHVCAIAGTQQSCSGPPKFEQVSDLEKITTQVYMLFKS
modifications: AXMI-031(A-D)
B2 was tested, and the “SCN cyst counts in transgenic soybean plants” value (SCN (HG2.5.7)) was “correlates with reduction in SCN cysts counts”, the “WinRHIZO root values versus negative control” value ([1]; Axmi031 as an individual component) was “comparable to, or slightly below, the negative control” and the “percent reduction in average number” value (SCN (inbred colony OP50); first experiment) was 92%. The “percent reduction in average number” value (SCN (inbred colony OP50); second experiment) was 88%, the “shoot length versus untreated negative control (UTC)” value (Glycine max (soybean); 28 days after planting (DAP), Axmi031 without metalaxyl) was 14% and the “increase in plant total mass” value (Glycine max (soybean); presence of Axmi031, no metalaxyl) was 13%.
